Active and inactive are the calls of the source. The rule behind the calls is not given here.

Our source for the IC50 and inhibition values is ChEMBL document CHEMBL2321689, “Design, synthesis and evaluation of novel heterodimers of donepezil and huperzine fragments as acetylcholinesterase inhibitors” (Bioorg Med Chem, 2013).

One assay in a line: tissue or blood. Conditions: Rattus norvegicus, Sprague-Dawley, Serum.
In the next assay the target is T1, Acetylcholinesterase (Rattus norvegicus, UniProt P37136).
T1 sequence (P37136 whole entry): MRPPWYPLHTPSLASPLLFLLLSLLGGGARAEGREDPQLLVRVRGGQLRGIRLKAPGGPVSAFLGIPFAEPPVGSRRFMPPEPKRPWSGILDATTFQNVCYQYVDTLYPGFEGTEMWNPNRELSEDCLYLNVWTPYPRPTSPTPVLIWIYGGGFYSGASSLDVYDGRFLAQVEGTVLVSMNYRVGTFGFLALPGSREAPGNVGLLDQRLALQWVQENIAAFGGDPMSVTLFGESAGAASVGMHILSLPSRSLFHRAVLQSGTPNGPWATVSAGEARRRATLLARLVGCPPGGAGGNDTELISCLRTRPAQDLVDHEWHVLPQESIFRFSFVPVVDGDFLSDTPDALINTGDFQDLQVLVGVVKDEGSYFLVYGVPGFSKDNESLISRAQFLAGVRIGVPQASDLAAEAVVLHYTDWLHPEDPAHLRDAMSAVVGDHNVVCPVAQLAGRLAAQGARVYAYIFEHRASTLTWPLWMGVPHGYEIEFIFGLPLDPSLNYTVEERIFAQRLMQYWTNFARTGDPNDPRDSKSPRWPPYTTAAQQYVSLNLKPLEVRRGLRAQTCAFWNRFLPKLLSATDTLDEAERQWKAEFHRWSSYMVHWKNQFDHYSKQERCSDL

For a further assay, the species on record is Rattus norvegicus. Briefly: Inhibition of BuChE in Sprague-Dawley rat serum at 1 mM by Ellman's method. In kind it is cell-free.

Description for Acetylcholinesterase: Inhibition of AChE in Sprague-Dawley rat cortices using acetylthiocholine iodide as substrate by Ellman's method
Description for tissue or blood: Inhibition of BuChE in Sprague-Dawley rat serum by Ellman's method

With `COc1cc2c(cc1OC)C(=O)C(CCCCCCCCCN[C@H]1CCCc3[nH]c(=O)ccc31)C2` (mixture of isomers), the values for the concentration for half-maximal inhibition (IC50) in the assay “tissue or blood” and at Acetylcholinesterase were 678 µM and 2.6 µM, respectively.
As to `COc1ccc(C(=O)NCCCCCN[C@H]2CCCc3[nH]c(=O)ccc32)cc1OC`, the figures for the IC50 in “tissue or blood” and against Acetylcholinesterase were 33 µM and 12 µM, respectively.
Take `COc1cc2c(cc1OC)C(=O)C(CCCCN[C@@H]1CCCc3[nH]c(=O)ccc31)C2` (mixture of isomers): the inhibition entry in the assay filed under Rattus norvegicus was “inactive”. The same compound yielded an IC50 against Acetylcholinesterase of 0.53 µM.
For the compound `COc1ccc(C(=O)OCCCCCCCCCN[C@H]2CCCc3[nH]c(=O)ccc32)cc1OC`, the IC50 in the assay “tissue or blood” was determined as 308 µM; at Acetylcholinesterase, 9.67 µM.
The like results for `COc1ccc(C(=O)OCCCCCCCN[C@H]2CCCc3[nH]c(=O)ccc32)cc1OC` were, in that order, 194 µM and 8.2 µM.
Take `COc1cc2c(cc1OC)C(=O)C(CCCN[C@H]1CCCc3[nH]c(=O)ccc31)C2` (mixture of isomers): the inhibition result in the assay listed under Rattus norvegicus is “inactive”. For the same compound, at Acetylcholinesterase, the IC50 came to 41 µM.
For `COc1ccc(OCCCCCCN[C@H]2CCCc3[nH]c(=O)ccc32)cc1OC`, the results for the IC50 in “tissue or blood” and at Acetylcholinesterase were 17.7 µM and 3.95 µM, respectively.
Take `COc1ccc(OCCCCCN[C@H]2CCCc3[nH]c(=O)ccc32)cc1OC`: the concentration for half-maximal inhibition (IC50) was 42 µM in “tissue or blood” and 0.59 µM at Acetylcholinesterase.
For `COc1cc2c(cc1OC)C(=O)C(CCCCN[C@H]1CCCc3[nH]c(=O)ccc31)C2` (mixture of isomers), the inhibition result in the assay listed under Rattus norvegicus was “inactive”. Further, on Acetylcholinesterase, the IC50 stood at 0.009 µM.
With `COc1cc2c(cc1OC)C(=O)C(CCCCCCCN[C@H]1CCCc3[nH]c(=O)ccc31)C2` (mixture of isomers), the IC50 in the assay “tissue or blood” was 413 µM; at Acetylcholinesterase, 1.86 µM.
The like results for `COc1ccc(C(=O)OCCCCCN[C@H]2CCCc3[nH]c(=O)ccc32)cc1OC` were, in that order, 460 µM and 7.2 µM.
For `COc1cc2c(cc1OC)C(=O)C(CCCCCN[C@H]1CCCc3[nH]c(=O)ccc31)C2` (mixture of isomers), the inhibition entry in the assay filed under Rattus norvegicus is “inactive”. On Acetylcholinesterase, this compound came in with a half-inhibitory concentration (IC50) of 0.187 µM.
In the case of `COc1ccc(C(=O)OCCCCN[C@H]2CCCc3[nH]c(=O)ccc32)cc1OC`, the IC50 came to 15 µM in “tissue or blood” and 4.1 µM against Acetylcholinesterase.
On to `COc1ccc(C(=O)NCCCN[C@H]2CCCc3[nH]c(=O)ccc32)cc1OC`, for which the IC50 in “tissue or blood” is 139 µM; at Acetylcholinesterase it was 88 µM.
The like results for `C/C=C1\[C@H]2C=C(C)C[C@]1(N)c1ccc(=O)[nH]c1C2` [HUPERZINE A] were, in that order, 74 µM and 0.065 µM.
On to `COc1cc2c(cc1OC)C(=O)C(CCCCCCN[C@H]1CCCc3[nH]c(=O)ccc31)C2` (mixture of isomers), for which, in the assay listed under Rattus norvegicus, the inhibition entry is “inactive”. In addition, the half-maximal inhibitory concentration (IC50) against Acetylcholinesterase came to 0.037 µM.
With `COc1ccc(C(=O)OCCCN[C@H]2CCCc3[nH]c(=O)ccc32)cc1OC`, the results for the half-inhibitory concentration (IC50) in “tissue or blood” and on Acetylcholinesterase were 860 µM and 162 µM, respectively.
